These results are taken from ChEMBL document CHEMBL1201862, “PubChem BioAssay data set” (2004).

Assay [1] has as its target Genome polyprotein (dengue virus type 2, UniProt P29990). The experiment in a line: Dengue-2 NS5 methyltransferase inhibitors, primary screen, biochemical, confirmation dose response (AID 588689). It counts as functional.
Assay [2] has as its target T1, Ubiquitin-conjugating enzyme E2 N (Homo sapiens, UniProt P61088).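 Note: Dose-response confirmation in a TR-FRET assay detecting UBC13-driven polyubiquitin chain formation, inhibition measured.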
T1 sequence (P61088 whole entry): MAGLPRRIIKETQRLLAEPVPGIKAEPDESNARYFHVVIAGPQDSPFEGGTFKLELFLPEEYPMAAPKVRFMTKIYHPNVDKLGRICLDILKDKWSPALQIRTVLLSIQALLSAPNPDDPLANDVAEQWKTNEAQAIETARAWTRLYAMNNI
It counts as functional.

The test system of assay [3] is HEK293. As to the kind of experiment: inhibitors of LMP1-driven NF-kB reporter, dose response, cell-based, HEK293, luciferase, cherry-pick (AID 588343). The settings on record: Homo sapiens. It is filed as functional.
The nature of assay [4]: cytotoxicity toward DRD oncogenic fibroblasts, dose response, cell-based, non-viral oncogenic, luminescence (AID 1934). It counts as functional. The conditions noted are these: Homo sapiens.
Assay [5] deals with BJ. The experiment in a line: cells. It counts as functional, cell-based. The conditions noted are these: Homo sapiens.
In assay [6] the test system is BJ. The experiment in a line: cytotoxicity toward BJ-TERT fibroblasts, dose response, cell-based, RAS-independent, luminescence (AID 1933). It counts as functional. The settings on record: Homo sapiens.
Assay [7] concerns BJ. The experiment in a line: cytotoxicity toward BJ-TERT-LT-ST fibroblasts, dose response, cell-based, RAS-independent, luminescence (AID 1935).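 Note: BJ fibroblasts immortalized with TERT plus LT and ST oncogenes.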 It is filed as functional. The settings on record: Homo sapiens.
Assay [8] is described as follows: StAR promoter reporter inhibition counter-screen, dose response, counter-screen for LRH-1 inverse agonist project, cell-based, luminescence, luciferase reporter (AID 651969). It counts as functional. A general note: A counterscreen serves to expose hits that act by an unwanted route or on another target.
The target of assay [9] is Nuclear receptor subfamily 5 group A member 2 (Homo sapiens, UniProt O00482). It is filed as functional, cell-based.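 Note: HEK293T cells transfected with LRH-1 and a StAR promoter luciferase reporter; potency for inhibitors that lower LRH-1 driven reporter light.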
Chain of Nuclear receptor subfamily 5 group A member 2 (O00482 whole entry): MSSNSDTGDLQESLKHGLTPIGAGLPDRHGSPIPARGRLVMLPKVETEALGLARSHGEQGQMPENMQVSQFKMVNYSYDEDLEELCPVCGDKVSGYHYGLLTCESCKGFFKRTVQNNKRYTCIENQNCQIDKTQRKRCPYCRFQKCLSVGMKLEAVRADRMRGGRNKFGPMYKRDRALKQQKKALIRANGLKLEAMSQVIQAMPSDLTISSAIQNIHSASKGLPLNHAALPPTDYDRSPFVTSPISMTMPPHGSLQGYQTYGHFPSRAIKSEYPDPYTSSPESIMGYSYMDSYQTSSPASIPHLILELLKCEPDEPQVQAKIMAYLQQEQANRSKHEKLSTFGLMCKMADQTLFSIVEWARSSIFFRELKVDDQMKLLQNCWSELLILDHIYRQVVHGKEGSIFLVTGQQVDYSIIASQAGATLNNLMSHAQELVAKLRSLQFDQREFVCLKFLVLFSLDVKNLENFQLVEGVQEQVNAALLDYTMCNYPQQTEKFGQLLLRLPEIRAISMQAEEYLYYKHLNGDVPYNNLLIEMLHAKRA
The target of assay [10] is Steroidogenic factor 1 (Homo sapiens, UniProt Q13285). The experiment in a line: Counterscreen for inverse agonists of the liver receptor homolog-1 (LRH-1; NR5A2): Luminescence-based cell-based high throughput dose response assay to identify inverse agonists of the Steroidogenic Factor 1 Nuclear Receptor (SF1; NR5A1). It counts as functional.
Chain of Steroidogenic factor 1 (Q13285 whole entry): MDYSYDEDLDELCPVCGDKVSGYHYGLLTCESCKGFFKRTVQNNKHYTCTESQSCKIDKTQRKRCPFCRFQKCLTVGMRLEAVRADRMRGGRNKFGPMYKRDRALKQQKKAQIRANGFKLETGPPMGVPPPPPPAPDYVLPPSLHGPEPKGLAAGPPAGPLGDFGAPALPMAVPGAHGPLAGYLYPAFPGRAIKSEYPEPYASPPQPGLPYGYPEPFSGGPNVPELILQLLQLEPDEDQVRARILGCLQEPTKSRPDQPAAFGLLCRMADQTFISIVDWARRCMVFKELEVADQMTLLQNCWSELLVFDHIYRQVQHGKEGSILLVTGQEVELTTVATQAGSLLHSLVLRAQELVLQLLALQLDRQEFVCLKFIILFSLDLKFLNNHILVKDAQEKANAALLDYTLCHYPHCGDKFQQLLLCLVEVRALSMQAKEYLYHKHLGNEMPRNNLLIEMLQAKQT
Assay [11] has as its target T2, Aminopeptidase N (Plasmodium falciparum FcB1/Columbia, UniProt O96935).
T2 sequence (O96935 whole entry): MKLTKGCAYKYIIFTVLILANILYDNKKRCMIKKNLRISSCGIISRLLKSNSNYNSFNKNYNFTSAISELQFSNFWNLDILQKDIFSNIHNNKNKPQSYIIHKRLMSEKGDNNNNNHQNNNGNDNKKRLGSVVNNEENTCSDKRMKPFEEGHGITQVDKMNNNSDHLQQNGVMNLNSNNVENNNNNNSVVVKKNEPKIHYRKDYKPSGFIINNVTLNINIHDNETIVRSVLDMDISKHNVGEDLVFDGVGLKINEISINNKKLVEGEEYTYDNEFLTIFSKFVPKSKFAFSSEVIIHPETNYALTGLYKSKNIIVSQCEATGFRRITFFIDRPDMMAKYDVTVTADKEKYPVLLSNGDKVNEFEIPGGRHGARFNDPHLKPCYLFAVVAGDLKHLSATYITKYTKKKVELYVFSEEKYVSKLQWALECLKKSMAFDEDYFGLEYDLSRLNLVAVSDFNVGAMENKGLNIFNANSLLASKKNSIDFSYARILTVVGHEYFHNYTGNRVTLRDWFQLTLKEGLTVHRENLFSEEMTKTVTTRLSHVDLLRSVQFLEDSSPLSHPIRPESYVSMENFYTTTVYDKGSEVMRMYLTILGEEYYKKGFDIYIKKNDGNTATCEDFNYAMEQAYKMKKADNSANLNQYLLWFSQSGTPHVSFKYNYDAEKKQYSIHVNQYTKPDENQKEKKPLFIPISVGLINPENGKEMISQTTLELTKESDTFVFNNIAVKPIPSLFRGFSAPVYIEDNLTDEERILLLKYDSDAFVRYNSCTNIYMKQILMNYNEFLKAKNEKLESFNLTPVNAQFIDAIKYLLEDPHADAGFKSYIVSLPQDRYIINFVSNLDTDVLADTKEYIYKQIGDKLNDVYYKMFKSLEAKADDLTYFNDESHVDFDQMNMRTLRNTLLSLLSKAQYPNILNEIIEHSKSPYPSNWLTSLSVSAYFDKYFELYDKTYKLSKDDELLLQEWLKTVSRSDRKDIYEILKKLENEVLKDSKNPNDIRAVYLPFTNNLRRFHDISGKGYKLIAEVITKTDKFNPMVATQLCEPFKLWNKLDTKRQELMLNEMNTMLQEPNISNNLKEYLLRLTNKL
The experiment in a line: P. falciparum M1AAP inhibitors, biochemical, fluorogenic H-Leu-NHMec substrate, 1536-well (AID 1445). Also on record: species or system Plasmodium falciparum 3D7, 3D7.

The nature of assay [12]: cells. It is filed as functional, cell-based.
A short description of assay [13]: cells. It is filed as functional, cell-based. This is another data set of the same source.
Assay [14] relates to INS1. As to the kind of experiment: beta cell apoptosis inhibitors, cytokine rescue, dose response, luminescence, retest (AID 449756).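 Note: cell death triggered by IL-1 beta plus TNF-alpha plus IFN-gamma mixture; protective hits raise ATP signal compared with cytokine alone wells.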 It counts as functional, cell-based. The settings on record: Rattus norvegicus.
Assay [15] is described as follows: ZM109 Env clade C HIV-1 fusion inhibitors, dose response, HeLa effector, CEM target cells, luciferase, cherry-pick (AID 652058). It counts as functional, cell-based.
Assay [16] is described as follows: inhibitors of clade B AD8 Env fusion, dose response, cell-based, cherry-pick (AID 652062).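 Note: luciferase signal from cell-cell fusion driven by HIV-1 clade B AD8 Env; potency is for inhibitors of fusion seen as a drop in luminescence.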 It is filed as functional.
Assay [17] is described as follows: off-target signal loss in HeLa-CEM21 co-culture – HeLa F-luc CTL cells, cherry-picked, counter-screen for HIV-1 Env fusion inhibitor project, dose response (AID 652040).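 Note: potency for signal decrease marking cytotoxic or nonspecific inhibition.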 It is filed as functional, cell-based.
Assay [18] in a line: inhibitors of HIV Env-driven cell fusion, dose response, cherry-pick (AID 652057). It counts as functional, cell-based.
Assay [19] deals with T3, Protein RecA (Mycobacterium tuberculosis, UniProt P9WHJ3).
T3 sequence (P9WHJ3 whole entry): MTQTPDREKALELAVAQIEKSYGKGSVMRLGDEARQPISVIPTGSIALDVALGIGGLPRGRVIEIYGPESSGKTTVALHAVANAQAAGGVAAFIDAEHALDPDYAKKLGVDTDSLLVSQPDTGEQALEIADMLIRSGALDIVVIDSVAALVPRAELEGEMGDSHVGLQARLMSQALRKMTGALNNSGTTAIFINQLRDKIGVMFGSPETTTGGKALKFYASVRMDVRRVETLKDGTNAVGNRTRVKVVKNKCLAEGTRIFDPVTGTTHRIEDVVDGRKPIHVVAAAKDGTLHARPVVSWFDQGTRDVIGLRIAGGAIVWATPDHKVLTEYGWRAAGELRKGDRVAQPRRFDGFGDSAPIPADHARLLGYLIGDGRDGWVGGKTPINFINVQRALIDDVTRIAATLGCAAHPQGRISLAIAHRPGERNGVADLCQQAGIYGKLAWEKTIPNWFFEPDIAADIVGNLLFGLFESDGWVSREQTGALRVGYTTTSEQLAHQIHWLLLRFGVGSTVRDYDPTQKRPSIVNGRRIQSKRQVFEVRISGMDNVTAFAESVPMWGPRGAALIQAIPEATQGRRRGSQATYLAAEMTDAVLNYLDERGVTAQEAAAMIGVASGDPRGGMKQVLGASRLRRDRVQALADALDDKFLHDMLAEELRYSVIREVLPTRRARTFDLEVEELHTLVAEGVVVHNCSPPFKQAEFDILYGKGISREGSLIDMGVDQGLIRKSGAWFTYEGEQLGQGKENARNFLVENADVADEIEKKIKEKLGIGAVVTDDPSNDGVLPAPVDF
The experiment in a line: Fluorescence Cell-Free Homogeneous Dose Retest to Identify Inhibitors of RecA-Intein Splicing Activity. [Related pubchem assays (depositor defined):AID2097, AID2223, AID489010, AID492950]. It counts as functional.

The target of assay [20] is T4, Replicative DNA helicase DnaB (Mycobacterium tuberculosis, UniProt P9WMR3).
T4 sequence (P9WMR3 whole entry): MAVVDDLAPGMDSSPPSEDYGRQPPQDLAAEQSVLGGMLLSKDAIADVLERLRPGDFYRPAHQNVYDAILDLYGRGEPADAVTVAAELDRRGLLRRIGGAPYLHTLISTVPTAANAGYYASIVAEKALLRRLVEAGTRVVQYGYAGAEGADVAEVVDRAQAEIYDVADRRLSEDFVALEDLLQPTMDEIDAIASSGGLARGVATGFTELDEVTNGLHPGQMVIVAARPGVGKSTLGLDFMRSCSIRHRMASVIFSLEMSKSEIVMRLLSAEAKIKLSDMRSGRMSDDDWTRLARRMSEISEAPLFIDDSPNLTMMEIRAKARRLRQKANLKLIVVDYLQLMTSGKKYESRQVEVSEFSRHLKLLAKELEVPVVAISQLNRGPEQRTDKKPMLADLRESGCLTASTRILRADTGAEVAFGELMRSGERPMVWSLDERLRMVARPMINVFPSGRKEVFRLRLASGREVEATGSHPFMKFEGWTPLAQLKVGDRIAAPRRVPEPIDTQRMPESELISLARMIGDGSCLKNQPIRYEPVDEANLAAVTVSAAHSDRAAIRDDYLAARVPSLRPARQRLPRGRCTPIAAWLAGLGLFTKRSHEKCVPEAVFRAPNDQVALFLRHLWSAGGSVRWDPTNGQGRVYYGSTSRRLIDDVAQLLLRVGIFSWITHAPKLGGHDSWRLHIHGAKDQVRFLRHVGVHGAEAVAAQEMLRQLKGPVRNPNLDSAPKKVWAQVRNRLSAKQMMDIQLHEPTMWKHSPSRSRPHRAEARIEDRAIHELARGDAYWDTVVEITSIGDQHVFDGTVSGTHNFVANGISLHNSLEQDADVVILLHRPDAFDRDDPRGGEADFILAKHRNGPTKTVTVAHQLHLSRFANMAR
As to the kind of experiment: DnaB intein splicing inhibitors, dose response, biochemical, cell-free fluorescence (AID 449749). It is filed as functional.

The source made the active and inactive calls.

One may read the IC50 as the concentration that gives 50% inhibition. One may read the AC50 as the concentration at which the activity in the assay is half-maximal. Broadly, the EC50 is the concentration that produces a half-maximal response.

Chain of Genome polyprotein (P29990 2492-3391 limits assumed): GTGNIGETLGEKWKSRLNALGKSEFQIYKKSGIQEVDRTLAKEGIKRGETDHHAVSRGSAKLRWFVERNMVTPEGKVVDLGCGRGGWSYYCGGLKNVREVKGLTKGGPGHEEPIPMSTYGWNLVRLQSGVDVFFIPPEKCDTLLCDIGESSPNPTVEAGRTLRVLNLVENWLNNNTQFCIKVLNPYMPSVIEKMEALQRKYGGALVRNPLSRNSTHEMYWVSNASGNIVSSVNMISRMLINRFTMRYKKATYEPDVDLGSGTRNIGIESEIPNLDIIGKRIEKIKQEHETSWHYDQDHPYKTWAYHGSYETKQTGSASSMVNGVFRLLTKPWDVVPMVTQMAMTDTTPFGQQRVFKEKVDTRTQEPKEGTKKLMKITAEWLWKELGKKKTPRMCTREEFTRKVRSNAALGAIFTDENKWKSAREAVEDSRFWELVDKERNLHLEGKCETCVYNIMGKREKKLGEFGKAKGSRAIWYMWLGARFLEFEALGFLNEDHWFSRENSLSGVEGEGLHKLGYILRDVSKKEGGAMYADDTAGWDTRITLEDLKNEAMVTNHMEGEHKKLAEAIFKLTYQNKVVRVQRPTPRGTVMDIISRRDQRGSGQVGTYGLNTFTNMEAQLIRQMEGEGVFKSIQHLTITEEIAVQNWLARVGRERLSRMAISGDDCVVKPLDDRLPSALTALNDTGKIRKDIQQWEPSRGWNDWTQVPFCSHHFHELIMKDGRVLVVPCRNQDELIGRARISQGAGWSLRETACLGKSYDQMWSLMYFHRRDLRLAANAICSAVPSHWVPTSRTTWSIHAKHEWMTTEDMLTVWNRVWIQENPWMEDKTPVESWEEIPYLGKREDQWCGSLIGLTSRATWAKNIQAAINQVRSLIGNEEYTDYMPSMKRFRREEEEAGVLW

For `O=C1/C(=C2\C(=O)N(Cc3ccc(F)cc3)c3ccccc32)SC(=S)N1CCS(=O)(=O)O`, in [1], the IC50 is 32.5 µM (active).
For `NC(=O)CCn1c(C(=O)c2cc(Cl)c(N)c(Cl)c2)c2ccccc2[n+]1[O-]`, in [2], the IC50 was > 20 µM (inactive).
On to `C=CCn1c(=O)/c(=C/c2ccc(Cl)cc2)s/c1=C(\C#N)c1nnc2n1CCCCC2`, for which the AC50 in assay [3] was 23.9 µM (active).
For `CCOC(=O)c1[nH]c(C)c(C(=O)c2ccc(C)cc2)c1C`, the half-maximal effective concentration (EC50) in [4] is 3.16 µM (active); in assay [5] it was 23.5 µM (active); in assay [6], 3.19 µM (inconclusive); in assay [7], 27.4 µM (inconclusive).
In the case of `Cc1ccc(NC(=O)CSc2sc3c(O)cc(O)nc3c2C#N)c(F)c1`, the IC50 in [8], in assay [9] and in [10] was 35.9 µM (inactive) each time.
Regarding `Cc1nnc(SCC(=O)N2CCC(c3noc4ccc(F)cc34)CC2)s1`, the AC50 in assay [3] was 9.92 µM (active). In addition, the IC50 in assay [11] is 39.1 µM (active).
Regarding `N#Cc1ccc(-c2csc(NNC(=O)c3ccc(Br)cc3)n2)cc1`, the concentration for a half-maximal effect (EC50) in assay [12] and in assay [13] was > 350 µM (not active) each time. The concentration at half-maximal activity (AC50) in [3] is 8.39 µM (active); in assay [14], 7.72 µM (active).
With `CC[C@]1(C(=O)OC)[C@H]2C(=O)N(Cc3ccccc3)C(=O)[C@H]2[C@H]2CN=C(SCc3ccc(C#N)cc3)N21`, the concentration at half-maximal activity (AC50) was 1.07 µM (active) in assay [15]; 4.97 µM (active) in assay [3]; 5.1 µM (active) in assay [16]; 1.45 µM (active) in assay [17]; 0.709 µM (active) in assay [18].
In the case of `CC(=O)Nc1cc(-c2cccc(F)c2)cn2c(-c3ccc(S(C)(=O)=O)cc3)cnc12`, the figures for the IC50 in assay [8], in assay [9] and in assay [10] were 31.1 µM (inactive), 5.75 µM (active) and 2.36 µM (active), respectively.
For `CCOc1ccc(N2C(=O)C3C(c4ccccc4)=NN(c4ccccc4)C3C2=O)cc1` (stereo not drawn), the IC50 in assay [2] is > 20 µM (inactive).
Still for that read-out and setting: to `CC[C@H](C)[C@@H](CN[C@H](C)CNC)NCCC(c1ccccc1)c1ccccc1` belongs > 20 µM (inactive).
Regarding `Cc1[nH]n(-c2ccccc2)c(=O)c1C(c1ccccc1[N+](=O)[O-])C(C#N)C#N` (stereo not drawn), the 50% effective concentration (EC50) in assay [19] is 7.28 µM (active). In addition, the IC50 in assay [1] is 86.4 µM (active). Moreover, the AC50 in assay [20] is 3.3 µM (active).
On to `CCOc1cc(/C=N/n2nnnc2N)ccc1OCc1c(C)no[n+]1[O-]`, for which the IC50 was 35.9 µM (inactive) in assay [8], 11.8 µM (inactive) in assay [9] and 2.22 µM (active) in assay [10].
For `Cc1cccc(CN2C(=O)CSc3ccc(C(=O)NC4CC4)cc32)c1` the same measures were 20.1 µM (inactive), 1.89 µM (active) and 1.21 µM (active).
On the same counts, the results for `Cc1nnc(SCC(=O)Nc2ccc(Br)cc2)n(N)c1=O` are 35.9 µM (inactive), 35.9 µM (inactive) and 20.1 µM (inactive).
